# Experimental data as given in patent US9139502B2, “Use of an urushiol compound in preparation of pharmaceutical compositions for inhibiting Smad3 phosphorylation” (Southern Hospital, Southern Medical University, priority 2013, dated 2015).
# How the values were obtained:
# p38 = experiment: Western blot of TGF-β1-induced p38 phosphorylation in vitro; assay type: cell-based, rat; conditions: NRK52E and NRK49F cells, GQ-5 2.5 nM pre-treated 1 h, TGF-β1 10 ng/ml 1 h
# Protocol: (§1) NRK52E and NRK49F cells were cultured in DMEM-Ham's medium (Gibco, Life Techologies, NY, USA) supplemented with 10% fetal bovine serum (Gibco, Life Techologies, NY, USA). The cells reached at approximately 50% confluence were used for in vitro experiments. Cells were serum-starved for 12 h, and randomized into 4 groups: (1) Controls; (2) GQ-5 only; (3) TGF-β1 only; (4) TGF-β1+GQ-5
# (§2) (2) GQ-5 only: pre-treated with GQ-5 (2.5 μM) for 1 h, followed with DMEM for 1 h
# (§3) (3) TGF-β1 only: pre-treated with DMSO (0.1%) for 1 h, followed with TGF-β1 (10 ng/ml) for 1 h
# (§4) (4) TGF-β1+GQ-5: pre-treated with GQ-5 (2.5 nM) for 1 h, followed with TGF-β1 (10 ng/ml) for 1 h
# (§5) GQ-5 was dissolved in DMSO. Cells were treated as described. cell lysates were immunoblotted with antibodies against Smad4, Smad7, phospho-p38, p38, phospho-PI3K, PI3K, phosphor-ERK, and ERK.
# PI3K [1] = experiment: Western blot of PI3K phosphorylation in UUO kidneys; assay type: in vivo, rat; conditions: UUO rats, GQ-5 40 mg/kg daily i.p. right after UUO, sacrificed day 14
# Protocol: Male Sprague-Dawley rats with body weight 200 to 250 g were randomized into 3 groups (n=6 in each group): (1) sham operated rats; (2) UUO rats; (3) UUO+GQ-5 rats.
# (§6) GQ-5 was dissolved in 5% propylene glycol.
# (3) UUO+GQ-5 rats: daily intraperitoneal injection of GQ-5 (40 mg/kg body weight) right after UUO;
# UUO was performed using an established protocol as described. GQ-5 was dissolved in 5% propylene glycol. Rats were administrated with GQ-5 as described before. All the rats were sacrificed 14 days after UUO. Western blot analyses were performed to examine the Smad4, Smad7 expression and p38, PI3K, ERK phosphorylation.
# [2] = system: Smad3-dependent collagen I promoter; experiment: Luciferase reporter assay of Smad3-dependent collagen I promoter activity; assay type: cell-based, rat; conditions: NRK52E cells transfected with p(GAGA)12-luc, GQ-5 0.1, 0.5, 2.5 μM pre-treated 1 h, TGF-β1 10 ng/ml 24 h
# PI3K [3] = experiment: Western blot of TGF-β1-induced PI3K phosphorylation in vitro; assay type: cell-based, rat; conditions: NRK52E and NRK49F cells, GQ-5 2.5 nM pre-treated 1 h, TGF-β1 10 ng/ml 1 h
# Protocol: as §1, §2, §3, §4, §5
# α-SMA [4] = experiment: Real-time PCR of TGF-β1-induced α-SMA mRNA in vitro; assay type: cell-based, rat; conditions: NRK 52E and NRK 49F cells, GQ-5 0.1-2.5 μM pre-treated 1 h, TGF-β1 10 ng/ml 36 h
# Protocol: NRK52E and NRK49F cells were cultured in DMEM-Ham's medium supplemented with 10% fetal bovine serum. The cells reached at approximately 50% confluence were used for in vitro experiments. Cells were serum-starved for 12 h, and randomized into 6 groups: (1) Controls; (2) GQ-5 only; (3) TGF-β1 only; (4) TGF-β1+GQ-5 0.1 μM; (5) TGF-β1+GQ-5 0.5 μM; (6) TGF-β1+GQ-5 2.5 μM
# (2) GQ-5 only: pre-treated with GQ-5 (2.5 μM) for 1 h, followed with DMEM for 36 h
# (3) TGF-β1 only: pre-treated with DMSO for 1 h, followed with TGF-β1 (10 ng/ml) for 36 h
# (4) TGF-β1+GQ-5 0.1 μM: pre-treated with GQ-5 (0.1 μM) for 1 h, followed with TGF-β1 (10 ng/ml) for 36 h
# (5) TGF-β1+GQ-5 0.5 μM: pre-treated with GQ-5 (0.5 μM) for 1 h, followed with TGF-β1 (10 ng/ml) for 36 h
# (6) TGF-β1+GQ-5 2.5 μM: pre-treated with GQ-5 (2.5 μM) for 1 h, followed with TGF-β1 (10 ng/ml) for 36 h
# GQ-5 was dissolved in DMSO. Cells were treated as described. Cells were collected for mRNA extraction. Real-rime PCR was performed to examine the mRNA expression of α-SMA, collagen I and fibronectin.
# C57BL/6J mice = experiment: Single-dose toxicity of GQ-5 in mice; assay type: in vivo; conditions: single intraperitoneal dose up to 800 mg/kg, 7-day observation
# Protocol: To test the toxicity of GQ-5, 20 C57BL/6J little male mice which are […], healthy and clean, their weights are between 20 and 22 gram. Antisepsis the feed and water, before and in the layoff period of the test, all the mice should be feed under the normal feeding condition.
# Dissolve GQ-5 in 0.5% propylene glycol, this liquor is given to little mice by intraperitoneal injection. The dosage of GQ-5 was 10, 40, 200, and 800 mg/kg body weight of mice. After administration, they are observed for 7 days.
# Smad7 = experiment: Western blot of Smad7 expression in vitro; assay type: cell-based, rat; conditions: NRK52E and NRK49F cells, GQ-5 2.5 nM pre-treated 1 h, TGF-β1 10 ng/ml 1 h
# Protocol: as §1, §2, §3, §4, §5
# Smad4 = experiment: Western blot of Smad4 expression in vitro; assay type: cell-based, rat; conditions: NRK52E and NRK49F cells, GQ-5 2.5 nM pre-treated 1 h, TGF-β1 10 ng/ml 1 h
# Protocol: as §1, §2, §3, §4, §5
# collagen I = experiment: Collagen I expression in UUO kidney tissue (real-time PCR, immunohistochemistry, Western blot); assay type: in vivo, rat; conditions: UUO rats, GQ-5 40 mg/kg daily i.p., sacrificed day 14
# Protocol: (§7) Male Sprague-Dawley rats were randomized into 4 groups (n=6 in each group): (1) sham operated rats; (2) UUO rats; (3) UUO+GQ-5 d1 rats; (4) UUO+GQ-5 d7 rats.
# as §6
# (§8) (3) UUO+GQ-5 d1 rats: daily intraperitoneal injection of GQ-5 (40 mg/kg body weight) right after UUO;
# (§9) (4) UUO+GQ-5 d7 rats: daily intraperitoneal injection of GQ-5 (40 mg/kg body weight) 7 days after UUO.
# (§10) UUO was performed using an established protocol as described. GQ-5 was dissolved in 5% propylene glycol. Rats were administrated with GQ-5 as described before. All the rats were sacrificed 14 days after UUO. HE staining, Masson trichrome staining were performed to examine the renal tissue injury, and Real-time PCR analyses, immunohistochemical staining, and Western blot analyses were performed to examine α-SMA, collagen I and fibronectin expression in kidney tissue
# α-SMA [5] = experiment: α-SMA expression in UUO kidney tissue (real-time PCR, immunohistochemistry, Western blot); assay type: in vivo, rat; conditions: UUO rats, GQ-5 40 mg/kg daily i.p., sacrificed day 14
# Protocol: as §7, §6, §8, §9, §10
smiles,measurement,setting,value
"CCCCCC/C=C\CCCCCCCc1cccc(O)c1O [GQ-5, 3-[(Z)-pentadec-8-enyl]catechol]",TGF-β1-induced phosphorylation of p38,p38,did not affect
same,phosphorylation of PI3K,PI3K [1],did not affect
same,TGF-β1-induced Smad3-dependent collagen I promoter activity,[2],significantly inhibited TGF-β1-induced Smad3-dependent collagen I promoter activity in a dose-dependent manner
same,TGF-β1-induced phosphorylation of PI3K,PI3K [3],did not affect
same,TGF-β1-induced mRNA expression of α-SMA,α-SMA [4],significantly inhibited
same,death or adverse event,C57BL/6J mice,did not die or developed any adverse event
same,protein expression of Smad7,Smad7,did not affect
same,protein expression of Smad4,Smad4,did not affect
same,up-regulation of collagen I at both mRNA and protein level,collagen I,significantly inhibited
same,up-regulation of α-SMA at both mRNA and protein level,α-SMA [5],significantly inhibited
